Measurements: patent publication US20050091702A1, “Expression of polypeptides in rod outer segment membranes” (priority 2001, published 2005)
Each block holds one compound with its values, some of them ahead of it.

Assays:
[1] = molecular target: T1, 5HT1AR-GFP-1D4 fusion protein (Homo sapiens, UniProt P08908); assay: Saturation radioligand binding to transgenic tadpole membranes expressing 5HT1AR-GFP-1D4
T1 construct: expressed in transfected cells; host or cells: transgenic Xenopus laevis tadpoles (rod cells; homogenized membranes), transgene pXOP-5HTR-GFP-1D4
Procedure: (§1) Radioligand binding assay were performed using transgenic tadpoles (stage 48 or older) or CHO cells expressing 5HT1A receptors homogenized in binding buffer (50 mM Tris-HCl, pH 7.4, 2 mM MgCl2, 1 mM EDTA and proteinase inhibitor cocktail). The binding assay was performed in 96-well plate with [methyl-^3H]-MPPE as a radioligand. For saturation binding analyses, the membranes (20 μg/well) were incubated with 0.05% saponin in a final volume of 50 μl at room temperature for 10 min, and then incubated with 50 μl of [methyl-^3H]-MPPE (0-50 nM) for another 90 min. Nonspecific binding was determined in the presence of 10 μM serotonin. Assays were terminated by rapid filtration through GF/C filter plate with 4 times washes with washing buffer (20 mM Trics-HCl, pH 7.4). The radioactivity was measured by a TopCount (PerkinElmer). Assays were performed in duplicate.
(§2) Binding assays were performed to confirm that the 5HT1A receptor was expressed as a functional 5HT1AR-GPF-1D4 fusion protein in rod cell ROS of Xenopus tadpoles. Binding affinity was determined by measuring the binding affinity of [methyl-^3H]-MPPF, a radiolabeled selective ligand to the 5HT1A receptor, to the expressed fusion protein. Because the 5HT1A receptor expressed in ROS disk membranes is oriented with the extracellular side facing the interior of these disks and shielded from the solution, the detergent saponin was used to open up pores in these disk membranes and allow access to the ligands. Saponin at a concentration of 0.05% or more could effectively increase specific binding of [methyl-^3H]-MPPE to 5HT1AR transgenic tadpole membranes, but not to control tadpole membranes. […] Based on these observations, 0.05% saponin was included in all ligand binding assays.
(§3) Saturation binding assays were also performed to measure the binding affinity and compare it to 5HT1A receptor expressed in standard mammalian CHO cells. […] The low nanomolar affinity and extent of specific binding further corroborates that the 5HT1A receptor is properly folded in transgenic tadpoles. […]

[2] = molecular target: T2, 5HT1A receptor (Homo sapiens, UniProt P08908); assay: Saturation radioligand binding to membranes from CHO cells expressing the 5HT1A receptor; details: membrane samples from CHO cells expressing the 5HT1A receptor, read-out: binding affinity KD
T2 construct: expressed in transfected cells; host or cells: CHO cells (transient expression)
T2 sequence (P08908 1-422): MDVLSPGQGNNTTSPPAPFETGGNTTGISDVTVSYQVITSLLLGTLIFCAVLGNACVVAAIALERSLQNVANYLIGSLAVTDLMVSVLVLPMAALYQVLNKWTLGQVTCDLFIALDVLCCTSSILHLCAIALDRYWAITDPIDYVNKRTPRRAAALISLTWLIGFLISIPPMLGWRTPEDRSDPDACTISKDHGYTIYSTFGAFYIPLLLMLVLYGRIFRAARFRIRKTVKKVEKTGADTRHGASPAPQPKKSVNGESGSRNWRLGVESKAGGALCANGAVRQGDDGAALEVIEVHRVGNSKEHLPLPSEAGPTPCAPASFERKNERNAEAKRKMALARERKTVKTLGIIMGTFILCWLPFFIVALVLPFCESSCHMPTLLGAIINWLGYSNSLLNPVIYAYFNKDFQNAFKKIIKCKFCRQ
Procedure: as §1
Saturation binding assays were also performed to measure the binding affinity and compare it to 5HT1A receptor expressed in standard mammalian CHO cells. […] The low nanomolar affinity and extent of specific binding further corroborates that the 5HT1A receptor is properly folded in transgenic tadpoles. […] For example, the effect on binding affinity may be due to different ligand kon or koff kinetic parameters, or different partition coefficients to the different lipids present in these membranes.

[3] = test system: 5HT1AR-GFP-1D4 fusion protein; assay: Saturation radioligand binding to transgenic tadpole membranes expressing 5HT1AR-GFP-1D4; set-up: species or system human; details: tadpole KD versus CHO KD
Procedure: as §1, §2, §3

[4] = molecular target: T3, rhodopsin-transducin interaction (Xenopus laevis, UniProt P29403); assay: Hydroxylamine inactivation of rhodopsin-mediated basal [35S]GTPγS binding in tadpole ROS membranes; assay type: biochemical; details: 10 mM hydroxylamine, room temperature
T3 construct: from tissue; host or cells: Xenopus laevis tadpole (retina/ROS) membranes
T3 sequence (P29403 1-354): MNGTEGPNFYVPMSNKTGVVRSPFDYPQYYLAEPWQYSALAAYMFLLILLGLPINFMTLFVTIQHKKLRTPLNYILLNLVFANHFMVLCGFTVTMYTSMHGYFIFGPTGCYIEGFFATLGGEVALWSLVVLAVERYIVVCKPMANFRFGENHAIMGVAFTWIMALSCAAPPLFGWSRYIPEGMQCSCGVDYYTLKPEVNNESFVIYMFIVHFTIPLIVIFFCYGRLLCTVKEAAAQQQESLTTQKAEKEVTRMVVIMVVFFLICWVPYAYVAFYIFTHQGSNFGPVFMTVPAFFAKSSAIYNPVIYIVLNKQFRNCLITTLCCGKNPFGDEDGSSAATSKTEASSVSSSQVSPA
Procedure: (§4) A receptor binding assay was performed to determine retention of functional receptor using [^35S]GTPγS labeled receptor ligand. Transgenic tadpoles (stage 48 or older) or CHO cells expressing 5HT1A receptors were homogenized in binding buffer (20 mM HEPES, pH 7.4, 10 mM MgCl2, 1 mM EDTA, 100 mM NaCl). The binding assay was performed in 96-well Scintiplate (PerkinElmer). To reduce [^35S]-GTPγS binding to rhodopsin-activated transducin in retina membrane, the membrane from tadpoles was preincubated with 10 mM hydroxylamine in binding buffer at room temperature for 60 min. The membranes (25 μg/well) were incubated with indicated ligands for 30 min in a total volume of 150 μl binding buffer containing 10 μM GDP, 0.5% BSA, 1 mM DTT), then 50 μl of […] [^35S]-GTPγS was added to each well to make a final concentration of 200 pM. The binding assays were carried out at room temperature for 60 min under gentle shaking. Final concentration of hydroxylamine in binding assay should be no more than 1 mM, Nonspecific binding was determined in the presence of 10 μM unlabelled GTPγS. Assays were terminated by centrifugation at 4000 g for 15 min and removal of supernatant. The radioactivity was measured by a TopCounter (PerkinElmer). Assays were performed in triplicate. […]

[5] = test system: CHO membranes; assay: Hydroxylamine effect on [35S]GTPγS binding to CHO membranes; assay type: biochemical; details: 10 mM hydroxylamine
Procedure: as §4

[6] = molecular target: T4, 5HT1A receptor (Homo sapiens, UniProt P08908); assay: [35S]GTPγS binding to transgenic tadpole membranes expressing 5HT1A; assay type: biochemical
T4 construct: expressed in transfected cells; host or cells: transgenic Xenopus laevis tadpoles (rod cells; homogenized membranes), transgene pXOP-5HTR-GFP-1D4
Procedure: as §4
T4 sequence (P08908 with tags, fused parts or gaps): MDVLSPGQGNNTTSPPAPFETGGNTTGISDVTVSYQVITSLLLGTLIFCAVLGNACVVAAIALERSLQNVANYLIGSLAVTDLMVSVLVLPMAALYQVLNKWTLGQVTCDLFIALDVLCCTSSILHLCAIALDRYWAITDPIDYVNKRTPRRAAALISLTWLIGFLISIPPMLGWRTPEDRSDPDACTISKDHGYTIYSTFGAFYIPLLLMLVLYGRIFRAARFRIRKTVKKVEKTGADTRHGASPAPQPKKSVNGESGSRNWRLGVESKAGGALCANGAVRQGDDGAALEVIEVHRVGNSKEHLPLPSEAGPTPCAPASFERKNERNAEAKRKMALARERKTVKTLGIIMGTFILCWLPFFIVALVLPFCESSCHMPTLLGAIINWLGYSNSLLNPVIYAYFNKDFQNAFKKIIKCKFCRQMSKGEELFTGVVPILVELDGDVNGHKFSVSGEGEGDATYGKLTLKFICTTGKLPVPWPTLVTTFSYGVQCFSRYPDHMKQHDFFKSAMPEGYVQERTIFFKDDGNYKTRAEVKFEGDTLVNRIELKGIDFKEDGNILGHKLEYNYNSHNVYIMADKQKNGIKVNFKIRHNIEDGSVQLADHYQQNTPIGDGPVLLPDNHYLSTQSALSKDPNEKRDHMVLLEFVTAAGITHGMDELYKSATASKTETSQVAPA

[7] = molecular target: T2, 5HT1A receptor; assay: [35S]GTPγS binding to CHO membranes transiently expressing 5HT1A; assay type: biochemical; details: CHO cells expressing 5HT1A
Procedure: as §4

[8] = molecular target: transducin in ROS membrane (Xenopus laevis); assay: cell-based or functional assay
[9] = molecular target: endogenous G proteins in retina rod cells; assay: cell-based or functional assay

T1 sequence (P08908 with tags, fused parts or gaps): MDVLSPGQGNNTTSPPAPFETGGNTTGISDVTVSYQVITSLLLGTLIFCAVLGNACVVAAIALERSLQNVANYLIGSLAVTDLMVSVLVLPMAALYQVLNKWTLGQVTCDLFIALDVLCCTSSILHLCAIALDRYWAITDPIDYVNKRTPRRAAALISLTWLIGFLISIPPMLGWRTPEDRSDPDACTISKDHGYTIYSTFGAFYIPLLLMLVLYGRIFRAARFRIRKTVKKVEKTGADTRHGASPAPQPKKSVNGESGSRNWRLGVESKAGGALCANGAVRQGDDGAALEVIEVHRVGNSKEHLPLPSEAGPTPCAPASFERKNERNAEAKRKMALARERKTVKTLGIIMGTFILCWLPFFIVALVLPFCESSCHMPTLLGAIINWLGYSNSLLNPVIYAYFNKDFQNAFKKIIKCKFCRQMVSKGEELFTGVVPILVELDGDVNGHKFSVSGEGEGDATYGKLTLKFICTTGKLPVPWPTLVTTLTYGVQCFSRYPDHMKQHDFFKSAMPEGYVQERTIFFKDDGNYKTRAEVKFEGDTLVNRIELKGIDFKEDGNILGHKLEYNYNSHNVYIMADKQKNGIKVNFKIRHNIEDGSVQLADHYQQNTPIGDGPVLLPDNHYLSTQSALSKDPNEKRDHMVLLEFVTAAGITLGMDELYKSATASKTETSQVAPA

Compound: COc1ccccc1N1CCN(CCN(C(=O)c2ccc(F)cc2)c2ccccn2)CC1 [[methyl-^3H]-MPPF]
Kd ([1]; transgenic Xenopus tadpole membranes expressing 5HT1AR-GFP-1D4, 0.05% saponin, saturation binding, read-out: binding affinity KD): 6.7 nM
Kd [2]: 0.35 ± 0.1 nM

Compound: NO [hydroxylamine]
reduction of basal [35S]GTPγS binding [4]: ~50%
effect on [35S]GTPγS binding [5]: without significant effect

Compound: h5HT1AR-GFP-1D4 fusion protein (from UniProt P08908 1-422) (receptor)
[^35S]GTPγS binding to transgenic tadpole membranes, stimulated by the agonist serotonin [9]: 50%

More lines, main results first:

specific binding to transgenic 5HT1A tadpole membranes ([1]; FIG. 14, 0.05% saponin, nonspecific binding with 10 μM serotonin): dose-dependent manner
Compound: [3H]C([3H])([3H])Oc1ccccc1N1CCN(CCN(C(=O)c2ccc(F)cc2)c2ccccn2)CC1 [[methyl-^3H]-MPPF]
difference in dissociation constants KD between transgenic tadpoles and CHO cells [3]: about 17 fold

stimulation of [35S]GTPγS binding ([6]; tadpole membranes pretreated with 10 mM hydroxylamine): about 50%
effect on [35S]GTPγS binding [7]: specifically stimulated
Compound: NCCc1c[nH]c2ccc(O)cc12 [serotonin, 5-hydroxytryptamine]

effect on [35S]GTPγS binding ([6]; transgenic tadpole membranes): significantly block
effect on [35S]GTPγS binding [7]: significantly block
Compound: O=C(CCCN1CCC2(CC1)C(=O)NCN2c1ccccc1)c1ccc(F)cc1 [spiperone]

decrease in basal [^35S]GTPγS binding to tadpole membranes after treatment with 10 mM hydroxylamine [8]: 50%
Compound: Xenopus rhodopsin (endogenous, in tadpole eye extracts) (from UniProt P29403 1-354) (receptor)
